Measurements: US20250002470A1, “NITROGEN-CONTAINING COMPOUND, PREPARATION METHOD THEREFOR AND APPLICATION THEREOF” (ZHEJIANG AIXPLORER BIOTECH CO., LTD., priority 2021, published 2025)

Columns and labels:
[1] = molecular target: T1, NLRP3 (Homo sapiens, UniProt Q96P20); assay: IL-1β (interleukin-1β) secretion in IFN-γ-differentiated, LPS/ATP-stimulated THP-1 cells (half inhibition rate of NLRP3); format: cell-based; conditions: IFN-γ 25 ng/mL, LPS 50 ng/mL, ATP 5 mM
T1 construct: endogenous in cells; host or cells: THP-1 cells (IFN-γ differentiated, LPS primed, ATP stimulated)
Summary of the method: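 IFN-γ-differentiated THP-1 cells primed with LPS (final 50 ng/mL, 4 h, serum-free), then given compound for 1 h and ATP (final 5 mM) for 1 h at 37 °C. Secreted IL-1β in supernatant quantified by sandwich ELISA (mAb Mt175 capture, biotinylated mAb7P10 detection, streptavidin-HRP/TMB, 450 nm).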

[2] = molecular target: hERG potassium channel (Homo sapiens, UniProt Q12809); assay: Whole-cell patch-clamp (QPatch) of hERG current in HEK293 cells stably expressing hERG; format: cell-based
Procedure: In this study, a whole-cell patch-clamp technique was used to study the inhibitory effect of compounds on hERG potassium channels and to evaluate the risk of ventricular repolarization toxicity.
The HEK293 cell line stably expressing the hERG potassium channel cells was purchased from Creacell, Inc. (Cat. No. A-0320).
The HEK293 cell line that can stably express the hERG potassium channel, was cultured in DMEM medium containing 10% fetal bovine serum and 0.8 mg/mL G418 at 37° C. and 5% carbon dioxide.
Before the test, the cells were separated with TrypLET Express, centrifuged after adding medium to terminate digestion, resuspended the cell count, adjusted the cell density to 2-3×10^6 cells/mL, and then lightly mixed the cells on a room temperature equilibration shaker for 15-20 min.
Electrophysiological assays were performed using a fully automated patch-clamp QPatch 48 X (Sophion) device. The prepared cells were placed on a centrifuge on the Qpatch bench, the cells were washed using multiple centrifugation/suspension methods, and the cell culture medium was replaced with extracellular fluid. Remove an MTP-96 plate and place it in the location of the MTP source. Remove the QPlate chip and subsequently place the QPlate at the Qplate source location. The robotic arm scans the MTP-96 board and the QPlate chip barcode and grabs it to the measuring station. Draw the intracellular and external fluid from the liquid pool and add them to the intracellular fluid pool, cell and test cell pool of the QPlate chip, respectively. At the measuring station, all measuring sites on the QPlate undergo initial quality control. The quality control process includes aspirating the cell suspension from the cell vessel of the centrifuge and positioning the cells to the chip wells via a pressure controller to establish a high-resistance seal and create a whole-cell recording pattern.
The voltage stimulation protocol for whole-cell patch-clamp recording of whole-cell hERG potassium currents is as follows: the cell membrane voltage clamps at −80 mV when a whole-cell closure is formed. The clamping voltage is depolarized from −80 mV to −50 mV for 0.5 s (as a leakage current detection), then steps to 30 mV for 2.5 s, and then quickly recovers to −50 mV for 4 s to excite the tail current of the hERG channel. The data were collected repeatedly every 10 s to observe the effect of the drug on the hERG tail current. −50 mV stimulation at 0.5 s was used as the leakage current detection. The test data is collected by Qpatch and stored in the connected service station.
First, the current after the effect of each drug concentration and the blank control current are normalized 0, and then the inhibition rate corresponding to each drug concentration is calculated.
Calculate the mean and standard error for each concentration and calculate the semi-inhibitory concentration for each compound using the following Formula:
Y=Bottom+(Top−Bottom)/(1+10^((LogIC50−X)*HillSlope)) The above Formula was used to fit the dose-dependent effect nonlinearly, where C represents the test substance concentration, IC50 is the semi-inhibitory concentration, and h represents the Hill coefficient. Curve fitting and IC50 calculations were performed using Graphpad software.

[3] = test system: IL-1β; assay: Inflammatory factor IL-1β in serum and colon, DSS-induced acute enteritis mouse model; format: in vivo, C57BL/6 mice; conditions: 50 mpk, BID
Procedure: Grouping and modeling: One day before the start of the experiment, all C57BL/6 mice were ear-labeled and recorded, and the animals with appropriate weight and normal status were selected for grouping (Sham group, vehicle group and embodiment 33 group). 10 animals per group; 3.5% dextran sulfate sodium salt (DSS, MP, molecular weight 36000-50000) prepared with sterile water is loaded into the drinking bottle in the vehicle and the 33 testing groups of rearing cages in the embodiment (100 mL per cage, replace the 3.5% DSS solution after 2-3 days with freshly prepared solution), and the animals in the vehicle and the 33 testing groups of the embodiment are free to drink for 10 consecutive days. The Sham group drank the normal water not containing DSS. Embodiment 33 compound is administered orally BID.
4) Detection of inflammatory factors: Blood was collected from all animals under their jaws, and serum was separated; serum and colon tissue IL-10 and IL-18 cytokines were detected according to the detection method in the Effect Embodiment 4.

[4] = Safety investigation, oral administration to SD rats for 14 consecutive days; conditions: 14 days

T1 sequence (Q96P20 whole entry): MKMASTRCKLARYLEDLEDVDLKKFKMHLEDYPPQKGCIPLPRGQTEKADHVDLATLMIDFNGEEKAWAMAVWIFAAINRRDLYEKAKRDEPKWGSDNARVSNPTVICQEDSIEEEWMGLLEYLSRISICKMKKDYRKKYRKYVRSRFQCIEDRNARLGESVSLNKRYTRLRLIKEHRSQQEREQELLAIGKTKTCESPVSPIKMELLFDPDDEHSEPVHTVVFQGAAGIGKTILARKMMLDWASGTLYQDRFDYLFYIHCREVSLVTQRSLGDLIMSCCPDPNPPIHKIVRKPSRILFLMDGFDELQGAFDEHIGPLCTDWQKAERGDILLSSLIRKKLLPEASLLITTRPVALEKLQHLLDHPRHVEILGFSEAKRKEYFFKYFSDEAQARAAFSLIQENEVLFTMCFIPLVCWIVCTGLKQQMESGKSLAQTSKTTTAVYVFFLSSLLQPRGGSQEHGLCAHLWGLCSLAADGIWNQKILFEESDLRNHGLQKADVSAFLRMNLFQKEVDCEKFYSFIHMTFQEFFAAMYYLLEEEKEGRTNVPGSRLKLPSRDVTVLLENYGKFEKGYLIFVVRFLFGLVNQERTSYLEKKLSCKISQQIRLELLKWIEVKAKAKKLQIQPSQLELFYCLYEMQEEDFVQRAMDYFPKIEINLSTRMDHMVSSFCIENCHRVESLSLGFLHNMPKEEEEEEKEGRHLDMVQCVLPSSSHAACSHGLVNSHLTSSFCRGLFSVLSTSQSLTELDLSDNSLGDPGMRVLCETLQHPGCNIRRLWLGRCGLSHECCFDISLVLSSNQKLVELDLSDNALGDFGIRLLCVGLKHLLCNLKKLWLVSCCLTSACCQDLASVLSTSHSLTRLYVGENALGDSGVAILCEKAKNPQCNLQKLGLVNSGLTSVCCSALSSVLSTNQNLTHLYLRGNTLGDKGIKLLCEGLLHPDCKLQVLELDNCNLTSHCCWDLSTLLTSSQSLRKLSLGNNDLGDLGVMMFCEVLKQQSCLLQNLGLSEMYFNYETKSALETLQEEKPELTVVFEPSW
Chain of hERG potassium channel (Q12809 whole entry): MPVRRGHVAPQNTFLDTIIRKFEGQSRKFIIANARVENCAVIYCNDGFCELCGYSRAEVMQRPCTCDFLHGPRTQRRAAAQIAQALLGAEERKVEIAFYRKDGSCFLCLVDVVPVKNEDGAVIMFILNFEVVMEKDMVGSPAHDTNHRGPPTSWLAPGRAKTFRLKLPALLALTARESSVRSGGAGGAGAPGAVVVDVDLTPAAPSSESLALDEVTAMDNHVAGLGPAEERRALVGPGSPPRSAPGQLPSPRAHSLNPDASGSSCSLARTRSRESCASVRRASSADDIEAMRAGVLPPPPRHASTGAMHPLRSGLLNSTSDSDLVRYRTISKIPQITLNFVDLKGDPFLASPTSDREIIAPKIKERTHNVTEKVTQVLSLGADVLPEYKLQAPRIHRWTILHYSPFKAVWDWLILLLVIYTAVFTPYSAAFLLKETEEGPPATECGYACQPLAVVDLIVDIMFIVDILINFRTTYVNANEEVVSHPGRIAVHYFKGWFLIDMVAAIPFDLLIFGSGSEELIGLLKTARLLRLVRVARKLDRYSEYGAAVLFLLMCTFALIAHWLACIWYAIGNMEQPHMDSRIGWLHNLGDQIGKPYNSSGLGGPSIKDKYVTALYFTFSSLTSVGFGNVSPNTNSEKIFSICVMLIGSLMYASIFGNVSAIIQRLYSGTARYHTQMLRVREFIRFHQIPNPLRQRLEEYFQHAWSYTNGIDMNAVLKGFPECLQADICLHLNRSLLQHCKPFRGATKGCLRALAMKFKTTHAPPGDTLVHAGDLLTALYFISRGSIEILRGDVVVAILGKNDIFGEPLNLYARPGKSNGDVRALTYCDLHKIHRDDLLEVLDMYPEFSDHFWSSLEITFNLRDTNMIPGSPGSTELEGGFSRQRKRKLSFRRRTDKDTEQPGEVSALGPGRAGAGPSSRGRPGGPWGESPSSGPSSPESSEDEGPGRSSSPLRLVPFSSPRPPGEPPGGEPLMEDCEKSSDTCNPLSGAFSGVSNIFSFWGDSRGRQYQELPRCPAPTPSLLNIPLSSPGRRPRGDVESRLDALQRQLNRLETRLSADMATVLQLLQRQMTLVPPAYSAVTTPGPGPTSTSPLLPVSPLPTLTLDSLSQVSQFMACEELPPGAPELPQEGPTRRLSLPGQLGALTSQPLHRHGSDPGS

In the case of Cc1nc(N[C@@H]2CCCC[C@H]2O)nnc1-c1ccc(C(F)(F)F)cc1O [Embodiment 33], the IC50 [1] is reported as 5.8 nM, the IC50 [2] is reported as > 30000 nM and the IL-1β in serum [3] is reported as 290.3 ± 30.65. The “IL-1β in the colon” value [3] was 6.018 ± 0.9675 and the “dose without any toxic effects” value [4] was ≤ 2000 mg/kg.
